Values quoted from earlier work, collected in patent publication US9592318B2, “Topical analgesic composition” (Animal Ethics Pty Ltd, priority 2005, dated 2017).

Assays:
[1] = following injection
significant open wound = details: topical, FIG. 2 area '3'

## CCCCN1CCCCC1C(=O)Nc1c(C)cccc1C (centres unmarked) [bupivacaine]
[1]
  duration of action: 6 to 8 h

## CCN(CC)CC(=O)Nc1c(C)cccc1C [Lignocaine]
Significant open wound
  duration of anesthesia of open wound: around 30 minutes
